Measured values taken from PMC11084659, “The Development of CDC25A-Derived Phosphoseryl Peptides That Bind 14-3-3ε with High Affinities” (International Journal of Molecular Sciences, 2024).
Where a SMILES comes first, the peptide text is derived from it. [ ]: non-standard residue; d: D form. pS = N[C@@H](COP(=O)(O)O)C(=O)O

T1: 14-3-3ε (Homo sapiens, UniProt P62258)
T1 construct: purchased Novus Biologicals
T1 sequence (P62258 1-255): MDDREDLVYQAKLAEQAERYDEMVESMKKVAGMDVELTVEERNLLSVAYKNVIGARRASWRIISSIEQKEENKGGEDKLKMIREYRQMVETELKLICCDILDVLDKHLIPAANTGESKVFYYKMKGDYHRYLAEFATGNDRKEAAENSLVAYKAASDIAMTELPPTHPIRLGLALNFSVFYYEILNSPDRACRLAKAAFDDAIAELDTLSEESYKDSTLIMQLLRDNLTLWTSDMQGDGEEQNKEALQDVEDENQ

T2: (His)6-14-3-3ε (UniProt P62258 1-255)
T2 construct: 14-3-3 protein epsilon; also called His-tagged protein; source: bought: Novus Biologicals
T2 sequence (looked up): T1 sequence (P62258 1-255)

B1: pS peptide, CDC25A residues 173–186 (peptide)
peptide: Ac-TQRQN[pS]APARMLSS-NH2
SMILES: CSCC[C@H](NC(=O)[C@H](CCCNC(=N)N)NC(=O)[C@H](C)NC(=O)[C@@H]1CCCN1C(=O)[C@H](C)NC(=O)[C@H](COP(=O)(O)O)NC(=O)[C@H](CC(N)=O)NC(=O)[C@H](CCC(N)=O)NC(=O)[C@H](CCCNC(=N)N)NC(=O)[C@H](CCC(N)=O)NC(=O)[C@@H](NC(C)=O)[C@@H](C)O)C(=O)N[C@@H](CC(C)C)C(=O)N[C@@H](CO)C(=O)N[C@@H](CO)C(N)=O
notes: CDC25A residues 173-186, with phosphoserine at 178; also called parent pS peptide; source: synthetic peptide (Biosynth International Inc.), >95% purity
B2: pS(174–182) (peptide)
peptide: Ac-QRQN[pS]APAR-NH2
SMILES: CC(=O)N[C@@H](CCC(N)=O)C(=O)N[C@@H](CCCNC(=N)N)C(=O)N[C@@H](CCC(N)=O)C(=O)N[C@@H](CC(N)=O)C(=O)N[C@@H](COP(=O)(O)O)C(=O)N[C@@H](C)C(=O)N1CCC[C@H]1C(=O)N[C@@H](C)C(=O)N[C@@H](CCCNC(=N)N)C(N)=O
notes: CDC25A residues 174-182, with phosphoserine at 178; also called Ac-CDC25A(174–182)-NH2; source: synthetic peptide (Biosynth International Inc.), >95% purity
B3: [Lys^177]pS(174–182) (peptide)
peptide: Ac-QRQK[pS]APAR-NH2
SMILES: CC(=O)N[C@@H](CCC(N)=O)C(=O)N[C@@H](CCCNC(=N)N)C(=O)N[C@@H](CCC(N)=O)C(=O)N[C@@H](CCCCN)C(=O)N[C@@H](COP(=O)(O)O)C(=O)N[C@@H](C)C(=O)N1CCC[C@H]1C(=O)N[C@@H](C)C(=O)N[C@@H](CCCNC(=N)N)C(N)=O
notes: CDC25A residues 174-182, with phosphoserine at 178 and Asn177 replaced by Lys; source: synthetic peptide (Biosynth International Inc.), >95% purity
B4: [Phe^176]pS(174–182) (peptide)
peptide: Ac-QRFN[pS]APAR-NH2
SMILES: CC(=O)N[C@@H](CCC(N)=O)C(=O)N[C@@H](CCCNC(=N)N)C(=O)N[C@@H](Cc1ccccc1)C(=O)N[C@@H](CC(N)=O)C(=O)N[C@@H](COP(=O)(O)O)C(=O)N[C@@H](C)C(=O)N1CCC[C@H]1C(=O)N[C@@H](C)C(=O)N[C@@H](CCCNC(=N)N)C(N)=O
notes: CDC25A residues 174-182, with phosphoserine at 178 and Gln176 replaced by Phe; source: synthetic peptide (Biosynth International Inc.), >95% purity
B5: [Phe^179]pS(174–182) (peptide)
peptide: Ac-QRQN[pS]FPAR-NH2
SMILES: CC(=O)N[C@@H](CCC(N)=O)C(=O)N[C@@H](CCCNC(=N)N)C(=O)N[C@@H](CCC(N)=O)C(=O)N[C@@H](CC(N)=O)C(=O)N[C@@H](COP(=O)(O)O)C(=O)N[C@@H](Cc1ccccc1)C(=O)N1CCC[C@H]1C(=O)N[C@@H](C)C(=O)N[C@@H](CCCNC(=N)N)C(N)=O
notes: CDC25A residues 174-182, with phosphoserine at 178 and Ala179 replaced by Phe; source: synthetic peptide (Biosynth International Inc.), >95% purity
B6: [Tyr^176]pS(174–182) (peptide)
peptide: Ac-QRYN[pS]APAR-NH2
SMILES: CC(=O)N[C@@H](CCC(N)=O)C(=O)N[C@@H](CCCNC(=N)N)C(=O)N[C@@H](Cc1ccc(O)cc1)C(=O)N[C@@H](CC(N)=O)C(=O)N[C@@H](COP(=O)(O)O)C(=O)N[C@@H](C)C(=O)N1CCC[C@H]1C(=O)N[C@@H](C)C(=O)N[C@@H](CCCNC(=N)N)C(N)=O
notes: CDC25A residues 174-182, with phosphoserine at 178 and Gln176 replaced by Tyr; source: synthetic peptide (Biosynth International Inc.), >95% purity
B7: [Tyr^179]pS(174–182) (peptide)
peptide: Ac-QRQN[pS]YPAR-NH2
SMILES: CC(=O)N[C@@H](CCC(N)=O)C(=O)N[C@@H](CCCNC(=N)N)C(=O)N[C@@H](CCC(N)=O)C(=O)N[C@@H](CC(N)=O)C(=O)N[C@@H](COP(=O)(O)O)C(=O)N[C@@H](Cc1ccc(O)cc1)C(=O)N1CCC[C@H]1C(=O)N[C@@H](C)C(=O)N[C@@H](CCCNC(=N)N)C(N)=O
notes: CDC25A residues 174-182, with phosphoserine at 178 and Ala179 replaced by Tyr; source: synthetic peptide (Biosynth International Inc.), >95% purity

Key:
14-3-3ε [1] = molecular target: T1, 14-3-3ε; assay: Differential scanning fluorimetry (DSF), melting temperature shift of 14-3-3ε; type: binding; conditions: 30 μM peptide, 2 µM 14-3-3ε, SYPRO-orange, 20 mM TRIS, 150 mM NaCl, 1 mM DTT, pH 7.4, average ± SD of n ≥ 5
Experimental: (§1) The binding of the peptides to 14-3-3ε was further assessed using differential scanning fluorometry (DSF) and surface plasmon resonance (SPR) measurements. DSF was used to determine the effects of the peptides on the melting temperature (Tm) of 14-3-3ε (Table 4, Figure 6 and Figure S4). The pS peptide caused an increase in melting temperature (ΔTm) of 0.35 ± 0.16 °C, while pS(174–182) induced no ΔTm. The Phe and Tyr substitutions in position 176 led to ΔTm of 1.08 ± 0.34 °C and 1.10 ± 0.32 °C, respectively. Lys, Phe, and Tyr substitutions in position 179 led to ΔTm of between 0.00 and 0.23 °C (Table 4). To quantitatively determine the affinity of the peptides for 14-3-3ε protein using SPR, His-tagged protein was immobilized on a nitrilotriacetic acid (Ni-NTA) sensor chip, and then binding of the peptides analogs to the protein was determined.
Thermal unfolding of 14-3-3ε (2 µM) and its complex with peptides (30 μM) was monitored in the presence of a hydrophobic protein-binding dye, SYPRO-orange (Invitrogen, Carlsbad, CA, USA), using the BioRad CFX384 Touchreal-time PCR (Hercules, CA, USA). The assays were performed in 20 mM TRIS, 150 mM NaCl, 1 mM DTT, and pH 7.4 buffer. The first derivative of the melting curves was plotted using GraphPad Prism software, version 10.0.3 to determine Tm of the protein. ΔTm was determined as the difference between Tm of 14-3-3ε in the presence of a peptide and Tm of 14-3-3ε alone.

14-3-3ε [2] = molecular target: T1, 14-3-3ε; assay: Surface plasmon resonance (SPR), steady-state affinity on immobilized His6-14-3-3ε; type: binding
Experimental: as §1
The SPR analyses were carried out using the Biacore 8K surface plasmon resonance instrument (Cytiva, Marlborough, MA, USA). A total of 100 nM His6-14-3-3ε was immobilized on the NiCl2-activated NTA chip (Cytiva, Marlborough, MA, USA) as previously described. Then, different concentrations of peptide in the range of 0−500 μM (depending on the peptide) were injected. The experiments were performed in 20 mM TRIS, 150 mM NaCl, 50 μM EDTA, 0.005% Tween 20, and pH 7.4 buffer. The affinities of the peptides binding to 14-3-3ε were determined by fitting the data to a steady-state binding model using Biacore Insight Evaluation Software (version 5.0.18.22102).

cSCC cells = conditions: read-out: IC50, death of cSCC cells; cited from earlier work
(His)6-14-3-3ε [3] = molecular target: T2, (His)6-14-3-3ε; assay: SPR; Biacore 8K; 100 nM His6-14-3-3ε immobilized on NiCl2-activated NTA chip; peptides injected at 0-500 μM (depending on the peptide); 20 mM TRIS, 150 mM NaCl, 50 μM EDTA, 0.005% Tween 20, pH 7.4; steady-state binding model; conditions: both partners purified
(His)6-14-3-3ε [4] = molecular target: T2, (His)6-14-3-3ε; assay: differential scanning fluorimetry; 14-3-3ε 2 µM with peptide 30 μM, SYPRO-orange; 20 mM TRIS, 150 mM NaCl, 1 mM DTT, pH 7.4; ΔTm = Tm with peptide minus Tm of 14-3-3ε alone; conditions: both partners purified
(His)6-14-3-3ε [5] = molecular target: T2, (His)6-14-3-3ε; assay: SPR; Biacore 8K; 100 nM His6-14-3-3ε immobilized on NiCl2-activated NTA chip; peptides injected at 0-500 μM (depending on the peptide); 20 mM TRIS, 150 mM NaCl, 50 μM EDTA, 0.005% Tween 20, pH 7.4; steady-state binding model; conditions: both partners purified; remark: listed apart in the source

Molecule	ΔTm (melting temperature shift of 14-3-3ε) (14-3-3ε [1])	ΔG ± SD (free energy of binding derived from KD) (14-3-3ε [2])	Kd ((His)6-14-3-3ε [3])	further results
CC(=O)N[C@@H](CCC(N)=O)C(=O)N[C@@H](CCCNC(=N)N)C(=O)N[C@@H](Cc1ccc(O)cc1)C(=O)N[C@@H](CC(N)=O)C(=O)N[C@@H](COP(=O)(O)O)C(=O)N[C@@H](C)C(=O)N1CCC[C@H]1C(=O)N[C@@H](C)C(=O)N[C@@H](CCCNC(=N)N)C(N)=O [[Tyr^176]pS(174–182)] (Ac-QRYN[pS]APAR-NH2)	1.10 ± 0.32 °C	-8.786 ± 0.11 kcal/mol	–	–
CSCC[C@H](NC(=O)[C@H](CCCNC(=N)N)NC(=O)[C@H](C)NC(=O)[C@@H]1CCCN1C(=O)[C@H](C)NC(=O)[C@H](COP(=O)(O)O)NC(=O)[C@H](CC(N)=O)NC(=O)[C@H](CCC(N)=O)NC(=O)[C@H](CCCNC(=N)N)NC(=O)[C@H](CCC(N)=O)NC(=O)[C@@H](NC(C)=O)[C@@H](C)O)C(=O)N[C@@H](CC(C)C)C(=O)N[C@@H](CO)C(=O)N[C@@H](CO)C(N)=O [pS] (Ac-TQRQN[pS]APARMLSS-NH2)	0.35 ± 0.16 °C	-9.073 ± 0.022 kcal/mol	–	IC50 (cSCC cells): 29 µM
CC(=O)N[C@@H](CCC(N)=O)C(=O)N[C@@H](CCCNC(=N)N)C(=O)N[C@@H](CCC(N)=O)C(=O)N[C@@H](CC(N)=O)C(=O)N[C@@H](COP(=O)(O)O)C(=O)N[C@@H](Cc1ccccc1)C(=O)N1CCC[C@H]1C(=O)N[C@@H](C)C(=O)N[C@@H](CCCNC(=N)N)C(N)=O [[Phe^179]pS(174–182)] (Ac-QRQN[pS]FPAR-NH2)	0 °C	-5.772 ± 0.048 kcal/mol	–	–
CC(=O)N[C@@H](CCC(N)=O)C(=O)N[C@@H](CCCNC(=N)N)C(=O)N[C@@H](Cc1ccccc1)C(=O)N[C@@H](CC(N)=O)C(=O)N[C@@H](COP(=O)(O)O)C(=O)N[C@@H](C)C(=O)N1CCC[C@H]1C(=O)N[C@@H](C)C(=O)N[C@@H](CCCNC(=N)N)C(N)=O [[Phe^176]pS(174–182)] (Ac-QRFN[pS]APAR-NH2)	1.08 ± 0.34 °C	–	–	–
CC(=O)N[C@@H](CCC(N)=O)C(=O)N[C@@H](CCCNC(=N)N)C(=O)N[C@@H](CCC(N)=O)C(=O)N[C@@H](CCCCN)C(=O)N[C@@H](COP(=O)(O)O)C(=O)N[C@@H](C)C(=O)N1CCC[C@H]1C(=O)N[C@@H](C)C(=O)N[C@@H](CCCNC(=N)N)C(N)=O [[Lys^177]pS(174–182)] (Ac-QRQK[pS]APAR-NH2)	0.23 ± 0.09 °C	-7.199 ± 0.055 kcal/mol	–	–
CC(=O)N[C@@H](CCC(N)=O)C(=O)N[C@@H](CCCNC(=N)N)C(=O)N[C@@H](CCC(N)=O)C(=O)N[C@@H](CC(N)=O)C(=O)N[C@@H](COP(=O)(O)O)C(=O)N[C@@H](Cc1ccc(O)cc1)C(=O)N1CCC[C@H]1C(=O)N[C@@H](C)C(=O)N[C@@H](CCCNC(=N)N)C(N)=O [[Tyr^179]pS(174–182)] (Ac-QRQN[pS]YPAR-NH2)	0 °C	-5.37 ± 0.0932 kcal/mol	–	–
CC(=O)N[C@@H](CCC(N)=O)C(=O)N[C@@H](CCCNC(=N)N)C(=O)N[C@@H](CCC(N)=O)C(=O)N[C@@H](CC(N)=O)C(=O)N[C@@H](COP(=O)(O)O)C(=O)N[C@@H](C)C(=O)N1CCC[C@H]1C(=O)N[C@@H](C)C(=O)N[C@@H](CCCNC(=N)N)C(N)=O [pS(174–182)] (Ac-QRQN[pS]APAR-NH2)	–	-6.874 ± 0.055 kcal/mol	–	–
B1	–	–	0.22 µM	ΔTm ((His)6-14-3-3ε [4]): 0.35 °C
B2	–	–	9.05 µM	Kd ((His)6-14-3-3ε [5]): 6.56 ± 2.16 µM
B3	–	–	5.23 µM	–
B4	–	–	0.36 µM	ΔTm ((His)6-14-3-3ε [4]): 1.08 °C
B5	–	–	58.3 µM	–
B6	–	–	0.41 µM	ΔTm ((His)6-14-3-3ε [4]): 1.1 °C
B7	–	–	116 µM	–
